According to US20190374601A1, “METHODS FOR TREATING FUNGAL INFECTIONS” (priority 2017, published 2019):
“And” between values parts separate entries of the source, which are not always exact repeats. Equal entries are not always repeated. Starred links: 1 amine or outer side, 2 acyl side, 3 side chain; linkers in the order of their positions; H or OH if unused. Positions of bridges follow the written chain, without caps; N, C: chain ends. Non-standard residues stand in square brackets, D forms with d. Residues, ends and D or L forms follow the SMILES beside them. *: point of attachment. Orn(4R-OH,5R-OCH2CH2NMe3+) = C[N+](C)(C)CCO[C@@H](N[*:3])[C@H](O)C[C@H](N[*:1])C(=O)[*:2]; pTerphenylCO(4''-OnC5H11) = CCCCCOc1ccc(-c2ccc(-c3ccc(C(=O)*)cc3)cc2)cc1; hTyr(3S-OH,4S-OH) = N[C@H](C(=O)O)[C@H](O)[C@@H](O)c1ccc(O)cc1; Pro(3S-OH,4S-Me) = C[C@H]1CN[C@H](C(=O)O)[C@H]1O; Hyp = O=C(O)[C@@H]1C[C@@H](O)CN1

Tests used:
[1] = Tissue concentration of subcutaneously injected CD101 in cynomolgus monkeys; type: in vivo; conditions: for CD101 Concentration: individual animals, at necropsy; for Mean Concentration: mean of males and females
Protocol: In this study, the tissue concentration of subcutaneously injected CD101 was evaluated in cynomolgus monkeys.
Dose levels were 30, 60, and 120 mg/kg/dose for Groups 2, 3, and 4, respectively. […] The dose volumes were 1.2, 0.3, 0.6, and 1.2 mL/kg spread evenly over 4, 1, 2, and 4 dose sites for Groups 1-4, respectively, on each day of dosing. The control and 120 mg/kg/dose groups each consisted of 5 males and 5 females, and the 30 and 60 mg/kg/dose groups each consisted of 3 males and 3 females.
The animals were observed twice daily for mortality and moribundity. Clinical examinations were performed once daily for at least 6 consecutive days, including the day of randomization, prior to randomization, prior to dosing, 1-2 hours postdosing, once daily on nondosing days, and once daily during the recovery period. Detailed physical examinations were performed at least weekly during the acclimation period until randomization, on the day of randomization, weekly (±2 days) during the study period, and on the day of the scheduled necropsies. Injection site (IS) observations were performed prior to dosing (dose sites that were utilized on that day of dosing), 1-2 hours postdosing (dose sites that were utilized on that day of dosing), once daily on nondosing days (dose sites that had been previously been utilized), and twice weekly during the recovery period. Individual body weights were recorded weekly (±2 days). Individual body weights were collected at least weekly during the acclimation period until randomization, on the day of randomization, Study Day 0 (prior to dosing), weekly (2±days) during the study period, on the day prior to the day of the scheduled necropsies (nonfasted) and on the day of the scheduled necropsies (fasted). Clinical pathology parameters (hematology, coagulation, serum chemistry, and urinalysis) were analyzed during acclimation prior to randomization (Study Day −15), and on the day of the primary (Study Day 17) and recovery (Study Day 45) necropsies. Blood samples for toxicokinetic evaluation were collected from all animals/sex/group/time point prior to dose administration and at approximately 1, 2, 4, 8, 24, 48, and 72 hours after dose administration on Study Days 0 and 12. Complete necropsies were performed on all animals, and selected organs were weighed at the scheduled necropsies. Selected tissues were examined microscopically from all animals. Fingernail, toenail, nail bed, and abdominal skin samples were collected from all animals at the scheduled necropsies for bioanalytical analysis.

[2] = test system: T. mentagrophytes ATCC 24953; experiment: Clinical evaluation of infected skin, T. mentagrophytes dermatophytosis guinea pig model, Example 1; type: in vivo; conditions: for Percent Efficacy Clinical: evaluated study day 10, relative to vehicle control
Protocol: A request was made to the Animal Resource Center (ARC) at Case Western Reserve University to order the required number of male albino Harlan-Sprague-Dawley Guinea-Pigs (San Diego, Calif.) with a body weight of 450-500 g. Animals were allowed to acclimate for a minimum of 5 days prior to use. Environmental controls for the animal room were set to maintain a temperature of 16 to 22° C., a relative humidity of 30-70%, and a 12:12 light-dark cycle.
T. mentagrophytes ATCC 24953 was used as the infecting fungus. This strain was selected because it can cause skin infection and results in inflammatory reaction.
T. mentagrophytes (from frozen stock) was sub-cultured on Potato Dextrose Agar plates and incubated at 30° C. for 5-7 days. The colonies were scraped from the plates using sterile normal saline (NaCl 0.85%) solution. After washing for three times with sterile saline the conidia were re-suspended in the same solution. Ten-fold dilutions of conidia suspension were prepared and counted using a hemacytometer. Working suspension of conidia was prepared at a final concentration of 1×10^7 Colony Forming Units (CFUs)/100 μL in normal saline.
Each animal was anesthetized with a cocktail of xylazine and ketamine: 0.2 mL intramuscularly. Using an electric shaver, hair was clipped on left side of the guinea pig back. A closer shave was done with a disposable razor. Using a stencil, a square of 2.5 cm×2.5 cm was marked. The marked skin area was abraded with sterile fine grit sandpaper. A cell suspension containing 1×10^7 conidia in 100 μL was applied and rubbed thoroughly on the abraded skin.
Beginning two hours post inoculation, animals were treated subcutaneously (SQ) for CD101 and orally (PO) terbinafine once daily for a period of nine days, or once a week on days 1 and 8.
Study Day 1: Infected the animals with T. mentagrophytes and begin treatments.
Study Day 9 (treatment day 9): End treatments.
Study Day 10: Clinical evaluation of the four quadrants in the marked area was done. Hair samples were obtained from each quadrant (10 per quadrant). Hairs were planted in Potato Dextrose Agar, and incubated for 48 h for mycological evaluation. Procedures for clinical and mycological evaluations are described below.
CD101 was administered SQ in 0.3 mL, while the terbinafine was given orally in 0.3 mL. Vehicle treated group was also included.
Clinical assessment of local changes of the infected skin area was scored as follows:
1=Few slightly erythematous places on the skin
2=Well-defined redness, swelling with bristling hairs.
3=Large areas or marked redness incrustation, scaling, bald patches, ulcerated in places.
4=Partial damage to the integument and loss of hair
5=Extensive damage to the integument and complete loss of hair at the site of infection.
Any other local skin reactions were noted. The assessment of clinical evaluation in the change of scores per treatment group is expressed as percentage relative to the vehicle control group of animals using the following formula:
where, T=Scores in the test group. K=Scores in the untreated control

Which results are given for `CCCCCOc1ccc(-c2ccc(-c3ccc(C(=O)N[C@H]4C[C@@H](O)[C@@H](OCC[N+](C)(C)C)NC(=O)[C@@H]5[C@@H](O)[C@@H](C)CN5C(=O)[C@H]([C@@H](C)O)NC(=O)[C@H]([C@H](O)[C@@H](O)c5ccc(O)cc5)NC(=O)[C@@H]5C[C@@H](O)CN5C(=O)[C@H]([C@@H](C)O)NC4=O)cc3)cc2)cc1` [CD101] ({pTerphenylCO(4''-OnC5H11)}-[Orn(4R-OH,5R-OCH2CH2NMe3+)]T[Hyp][hTyr(3S-OH,4S-OH)]T[Pro(3S-OH,4S-Me)]; lactam 1-C)?
CD101 Concentration ([1]; Fingernail bed, 30 mg/kg/dose SC once every 3 days (5 doses), 30 mg/kg): 168 µg/g and 160 µg/g and 92.5 µg/g and 75.9 µg/g and 71.9 µg/g and 48.6 µg/g; Mean Concentration ([1]; Fingernail bed, 30 mg/kg/dose SC): 103 µg/g; CD101 Concentration ([1]; Fingernail bed, 60 mg/kg/dose SC once every 3 days (5 doses), 60 mg/kg): 218 µg/g and 96.7 µg/g and 251 µg/g and 159 µg/g and 175 µg/g and 184 µg/g; Mean Concentration ([1]; Fingernail bed, 60 mg/kg/dose SC): 181 µg/g; CD101 Concentration ([1]; Fingernail bed, 120 mg/kg/dose SC once every 3 days (5 doses), 120 mg/kg): 1351 µg/g and 404 µg/g and 67.1 µg/g and 129 µg/g and 346 µg/g and 332 µg/g and 330 µg/g and 147 µg/g and 283 µg/g and 114 µg/g; Mean Concentration ([1]; Fingernail bed, 120 mg/kg/dose SC): 350 µg/g; CD101 Concentration ([1]; Fingernail, 30 mg/kg/dose SC once every 3 days (5 doses), 30 mg/kg): 106 µg/g and 118 µg/g and 63.6 µg/g and 60.8 µg/g and 74.2 µg/g; CD101 Concentration ([1]; Fingernail, 60 mg/kg/dose SC once every 3 days (5 doses), 60 mg/kg): 194 µg/g and 108 µg/g and 527 µg/g and 171 µg/g and 155 µg/g and 175 µg/g; Mean Concentration ([1]; Fingernail, 60 mg/kg/dose SC): 222 µg/g; CD101 Concentration ([1]; Fingernail, 120 mg/kg/dose SC once every 3 days (5 doses), 120 mg/kg): 266 µg/g and 264 µg/g and 445 µg/g and 469 µg/g and 239 µg/g and 244 µg/g and 269 µg/g and 459 µg/g and 348 µg/g and 339 µg/g; Mean Concentration ([1]; Fingernail, 120 mg/kg/dose SC): 334 µg/g; CD101 Concentration ([1]; Skin, 30 mg/kg/dose SC once every 3 days (5 doses), 30 mg/kg): 38.2 µg/g and 44.4 µg/g and 43.7 µg/g; CD101 Concentration ([1]; Skin, 60 mg/kg/dose SC once every 3 days (5 doses), 60 mg/kg): 108 µg/g and 66.2 µg/g and 99.6 µg/g and 48.8 µg/g and 81.7 µg/g and 82.0 µg/g; Mean Concentration ([1]; Skin, 60 mg/kg/dose SC): 81.0 µg/g; CD101 Concentration ([1]; Skin, 120 mg/kg/dose SC once every 3 days (5 doses), 120 mg/kg): 133 µg/g and 132 µg/g and 32.0 µg/g and 12.2 µg/g and 141 µg/g and 151 µg/g and 77.6 µg/g and 43.1 µg/g and 135 µg/g and 15.9 µg/g; Mean Concentration ([1]; Skin, 120 mg/kg/dose SC): 87.3 µg/g; CD101 Concentration ([1]; Toenail bed, 30 mg/kg/dose SC once every 3 days (5 doses), 30 mg/kg): 76.9 µg/g and 102 µg/g and 50.5 µg/g and 86.1 µg/g and 82.9 µg/g; Mean Concentration ([1]; Toenail bed, 30 mg/kg/dose SC): 74.7 µg/g; CD101 Concentration ([1]; Toenail, 30 mg/kg/dose SC once every 3 days (5 doses), 30 mg/kg): 76.0 µg/g and 74.2 µg/g and 126 µg/g and 58.8 µg/g and 42.8 µg/g and 38.3 µg/g; Mean Concentration ([1]; Toenail, 30 mg/kg/dose SC): 69.3 µg/g; CD101 Concentration ([1]; Toenail, 60 mg/kg/dose SC once every 3 days (5 doses), 60 mg/kg): 265 µg/g and 86.7 µg/g and 198 µg/g and 106 µg/g and 160 µg/g and 79.2 µg/g; Mean Concentration ([1]; Toenail, 60 mg/kg/dose SC): 149 µg/g; CD101 Concentration ([1]; Toenail, 120 mg/kg/dose SC once every 3 days (5 doses), 120 mg/kg): 268 µg/g and 182 µg/g and 360 µg/g and 162 µg/g and 416 µg/g and 173 µg/g and 206 µg/g and 318 µg/g and 190 µg/g and 193 µg/g; Mean Concentration ([1]; Toenail, 120 mg/kg/dose SC): 247 µg/g; Percent Efficacy Clinical ([2]; 35 mg/kg SQ daily for nine days): 84.0%; Percent Efficacy Clinical ([2]; 35 mg/kg SQ once a week (days 1 and 8)): 78.7%; clinical signs versus vehicle control group ([2]; guinea pigs, 35 mg/kg SQ daily and weekly): fewer clinical signs than the vehicle control group beginning on day 5 post inoculation; injection site reaction ([2]; guinea pigs, 35 mg/kg SQ daily or once a week): no bruising or redness was noted at the injection site
